Experimental data taken from patent US12624034B2, “Non-covalent modifiers of AKT1 and uses thereof” (Terremoto Biosciences, Inc., priority 2023, dated 2026).
Read-outs that look alike come from different tables or passages of the source.

What was measured:
[1] = biological target: T1, AKT1 WT (Homo sapiens, UniProt P31749); assay: Live cell AKT1 WT target engagement by NanoBRET competitive probe displacement in HEK293 cells; assay type: binding; settings: 2 h at 37° C., read-out: AKT1 WT IC50
T1 construct: expressed in transfected cells; host or cells: HEK293
T1 sequence (P31749 whole entry): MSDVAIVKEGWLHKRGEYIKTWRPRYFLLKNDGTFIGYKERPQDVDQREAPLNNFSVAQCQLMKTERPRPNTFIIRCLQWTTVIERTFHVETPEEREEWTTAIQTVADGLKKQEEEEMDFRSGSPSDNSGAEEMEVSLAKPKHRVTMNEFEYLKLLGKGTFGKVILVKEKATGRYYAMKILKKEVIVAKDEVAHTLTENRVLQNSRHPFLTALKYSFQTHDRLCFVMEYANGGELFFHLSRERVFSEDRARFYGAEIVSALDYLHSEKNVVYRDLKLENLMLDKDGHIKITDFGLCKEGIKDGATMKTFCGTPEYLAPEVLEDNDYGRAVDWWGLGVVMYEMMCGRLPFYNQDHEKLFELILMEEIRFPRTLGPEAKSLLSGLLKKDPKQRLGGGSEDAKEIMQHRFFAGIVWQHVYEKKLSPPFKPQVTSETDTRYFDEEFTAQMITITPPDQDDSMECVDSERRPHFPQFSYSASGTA

[2] = biological target: T2, AKT2 (Homo sapiens, UniProt P31751); assay: Live cell AKT2 target engagement by NanoBRET competitive probe displacement in HEK293 cells; assay type: binding; settings: 2 h at 37° C., read-out: AKT2 IC50
T2 construct: expressed in transfected cells; host or cells: HEK293
T2 sequence (P31751 whole entry): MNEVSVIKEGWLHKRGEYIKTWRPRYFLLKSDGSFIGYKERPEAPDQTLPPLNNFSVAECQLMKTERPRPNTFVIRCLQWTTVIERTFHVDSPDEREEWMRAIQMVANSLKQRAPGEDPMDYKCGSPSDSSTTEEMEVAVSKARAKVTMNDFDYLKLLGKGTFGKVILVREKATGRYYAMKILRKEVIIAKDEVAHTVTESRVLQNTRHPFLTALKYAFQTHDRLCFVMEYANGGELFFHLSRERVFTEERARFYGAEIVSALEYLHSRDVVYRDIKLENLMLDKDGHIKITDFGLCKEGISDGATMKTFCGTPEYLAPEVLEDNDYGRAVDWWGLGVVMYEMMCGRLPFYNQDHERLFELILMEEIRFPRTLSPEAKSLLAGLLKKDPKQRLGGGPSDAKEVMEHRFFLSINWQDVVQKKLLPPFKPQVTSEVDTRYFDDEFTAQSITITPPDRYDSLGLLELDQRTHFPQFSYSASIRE

[3] = system: LAPC4 prostate cancer cells, which express the AKT1 E17K allele; assay: Antiproliferative effects in LAPC4 cells (CellTiter Glo, 72 h); assay type: cell-based; settings: read-out: LAPC4 proliferation IC50
How it was run: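 Growth inhibition is gauged by intracellular ATP content, measured with CellTiter Glo 72 h after compound addition to 1,000 seeded cells per well. IC50 derives from a Hill equation fit.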

[4] = biological target: T3, AKT1 E17K (Homo sapiens, UniProt P31749, E17K); assay: Live cell AKT1 E17K target engagement by NanoBRET competitive probe displacement in HEK293 cells; assay type: binding; settings: 2 h at 37° C.
T3 construct: expressed in transfected cells; host or cells: HEK293
T3 sequence (P31749 whole entry E17K): as the sequence (P31749 whole entry) above, with E17K counted along it
How it was run: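 Tracer displacement measured in live HEK293 cells carrying NanoLuciferase-fused kinase. Compound competes with a fluorescently labelled ATP-competitive tracer used near its EC50 over 2 h at 37° C, and IC50 values come from Hill fitting of the 600/460 nm BRET signal.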

[5] = NanoBRET live cell target engagement, HEK293 cells
[6] = NanoBRET competitive probe displacement, live HEK293 cells

| Structure (SMILES) | IC50 [1, 5] [nM] | IC50 [2, 5] [nM] | IC50 ([3]; Homo sapiens, LAPC4, 72 h) [nM] | IC50 [4, 5] [nM] | IC50 [1, 6] [nM] | IC50 [2, 6] [nM] | IC50 [4, 6] [nM] | IC50 [3] [nM] |
| --- | --- | --- | --- | --- | --- | --- | --- | --- |
| Nc1ncccc1-c1nc2ccc(-n3nccn3)nc2n1-c1ccc2c(c1)CC[C@@H]2NC(=O)c1cnc(C(F)F)s1 [Compound 427] | – | – | 1710 | – | 9.56 | 1080 | 101 | – |
| Cc1nc(C(F)F)ccc1C(=O)N[C@H]1CCc2cc(-n3c(-c4cccnc4N)nc4ccc(-n5nccn5)nc43)ccc21 [Compound 392] | 41.3 | 5530 | > 10000 | > 1000 | – | – | – | – |
| COc1nccc(C(=O)N[C@H]2CCc3cc(-n4c(-c5cccnc5N)nc5ccc(-n6cccn6)nc54)ccc32)c1OC [Compound 355] | 16.8 | 74.4 | 2770 | 734 | – | – | – | – |
| Nc1ncccc1-c1nc2ccc(-n3cccn3)nc2n1-c1ccc2c(c1)CC[C@@H]2NC(=O)c1cncnc1C(F)F [Compound 116] | 10.2 | 303 | 5240 | 157 | – | – | – | – |
| Nc1ncccc1-c1nc2ccc(-n3nccn3)nc2n1-c1ccc2c(c1)CC[C@@H]2NC(=O)c1cnc(C(F)F)cn1 [Compound 288] | 112 | > 10000 | 3680 | > 1000 | – | – | – | – |
| COc1cc(C(=O)N[C@H]2CCc3cc(-n4c(-c5cccnc5N)nc5ccc(-n6cccn6)nc54)ccc32)cc(F)c1F [Compound 3, (S)—N-(5-(2-(2-aminopyridin-3-yl)-5-(1H-pyrazol-1-yl)-3H-imidazo[4,5-b]pyridin-3-yl)-2,3-dihydro-1H-inden-1-yl)-3,4-difluoro-5-methoxybenzamide] | 7.21 | 132 | 1710 | 120 | – | – | – | – |
| Nc1ncccc1-c1nc2ccc(-n3cccn3)nc2n1-c1ccc2c(c1)CC[C@@H]2NC(=O)c1cc[nH]c(=O)c1 [Compound 318] | 149 | 931 | 3600 | 181 | – | – | – | – |
| CCC(=O)N1CCC(N[C@H]2CCc3cc(-n4c(-c5cccnc5N)nc5ccc(-n6cccn6)nc54)ccc32)CC1 [Compound 278] | 93 | 3290 | > 10000 | > 1000 | – | – | – | – |
| Cn1cc(C(=O)N[C@H]2CCc3cc(-n4c(-c5cccnc5N)nc5ccc(-n6cccn6)nc54)ccc32)cn1 [Compound 39, (S)—N-(5-(2-(2-aminopyridin-3-yl)-5-(1H-pyrazol-1-yl)-3H-imidazo[4,5-b]pyridin-3-yl)-2,3-dihydro-1H-inden-1-yl)-1-methyl-1H-pyrazole-4-carboxamide] | 49.2 | 754 | 5190 | 211 | – | – | – | – |
| Nc1ncccc1-c1nc2ccc(-n3nccn3)nc2n1-c1ccc2c(c1)CC[C@@H]2NC(=O)c1cccnc1 [Compound 58, (S)—N-(5-(2-(2-aminopyridin-3-yl)-5-(2H-1,2,3-triazol-2-yl)-3H-imidazo[4,5-b]pyridin-3-yl)-2,3-dihydro-1H-inden-1-yl)nicotinamide] | 30.7 | 2040 | 1900 | 157 | – | – | – | – |
| Nc1ncccc1-c1nc2ccc(-n3cccn3)nc2n1-c1ccc2c(c1)CC[C@@H]2NC(=O)c1ccnc2sccc12 [Compound 363] | 7.74 | 67.2 | 1420 | 57.9 | – | – | – | – |
| Nc1ncccc1-c1nc2ccc(-n3cccn3)nc2n1-c1ccc2c(c1)CC[C@@H]2NC(=O)c1cncnc1 [Compound 40, N-[(1S)-5-[2-(2-aminopyridin-3-yl)-5-(pyrazol-1-yl)imidazo[4,5-b]pyridin-3-yl]-2,3-dihydro-1H-inden-1-yl]pyrimidine-5-carboxamide] | 9.21 | 179 | 1770 | 36 | – | – | – | – |
| Nc1ncccc1-c1nc2ccc(-n3cccn3)nc2n1-c1ccc2c(c1)CC[C@@H]2NC1CCc2cnccc21 (single isomer, unassigned) [Compound 474] | – | – | 2730 | – | 14.9 | 423 | 196 | – |
| Nc1ncccc1-c1nc2ccc(-n3cccn3)nc2n1-c1ccc2c(c1)CC[C@@H]2n1cc(C2CC2)nn1 [Compound 221] | 10.9 | 449 | 1280 | 5.8 | – | – | – | – |
| Nc1ncccc1-c1nc2ccc(-n3cccn3)nc2n1-c1ccc2c(c1)CC[C@@H]2NC(=O)c1ccnc(C(F)F)c1 [Compound 44, (S)—N-(5-(2-(2-aminopyridin-3-yl)-5-(1H-pyrazol-1-yl)-3H-imidazo[4,5-b]pyridin-3-yl)-2,3-dihydro-1H-inden-1-yl)-2-(difluoromethyl)isonicotinamide] | 9.55 | 141 | 1400 | 74.1 | – | – | – | – |
| Nc1ncccc1-c1nc2ccc(-n3cccn3)nc2n1-c1ccc2c(c1)CC[C@@H]2NC1CCN(c2ccccn2)C1 (stereo partly shown) [Compound 388] | 28.7 | 674 | – | 247 | – | – | – | 3140 |

The remaining molecules from weak to strong by IC50 ([3]; Homo sapiens, LAPC4, 72 h), led by results:

| IC50 [1, 5] [nM] | IC50 [2, 5] [nM] | IC50 ([3]; Homo sapiens, LAPC4, 72 h) [nM] | IC50 [4, 5] [nM] | IC50 [1, 6] [nM] | IC50 [2, 6] [nM] | IC50 [4, 6] [nM] | IC50 [3] [nM] | Structure (SMILES) |
| --- | --- | --- | --- | --- | --- | --- | --- | --- |
| 15 | 636 | 1140 | 229 | – | – | – | – | Cc1ccc(C(=O)N[C@H]2CCc3cc(-n4c(-c5cccnc5N)nc5ccc(-n6nccn6)nc54)ccc32)cn1 [Compound 67] |
| 18.1 | 118 | 1120 | 142 | – | – | – | – | Nc1ncccc1-c1nc2ccc(-n3ccc(F)n3)nc2n1-c1ccc2c(c1)CC[C@@H]2NC(=O)c1ccc(C(F)F)nc1 [Compound 53, (S)—N-(5-(2-(2-aminopyridin-3-yl)-5-(3-fluoro-1H-pyrazol-1-yl)-3H-imidazo[4,5-b]pyridin-3-yl)-2,3-dihydro-1H-inden-1-yl)-6-(difluoromethyl)nicotinamide] |
| 5.1 | 10.5 | 1070 | 143 | – | – | – | – | COc1nccc(C(=O)N[C@H]2CCc3cc(-n4c(-c5cccnc5N)nc5ccc(-n6cccn6)nc54)ccc32)c1C [Compound 284] |
| 6.46 | 69.6 | 1060 | 26.8 | – | – | – | – | Cc1ccc(C(=O)N[C@H]2CCc3cc(-n4c(-c5cccnc5N)nc5ccc(-n6cccn6)nc54)ccc32)cn1 [Compound 26, (S)—N-(5-(2-(2-aminopyridin-3-yl)-5-(1H-pyrazol-1-yl)-3H-imidazo[4,5-b]pyridin-3-yl)-2,3-dihydro-1H-inden-1-yl)-6-methylnicotinamide] |
| 2.57 | 12.6 | 970 | 73.9 | – | – | – | – | CN(C)c1cc(C(=O)N[C@H]2CCc3cc(-n4c(-c5cccnc5N)nc5ccc(-n6cccn6)nc54)ccc32)ccn1 [Compound 63, (S)—N-(5-(2-(2-aminopyridin-3-yl)-5-(1H-pyrazol-1-yl)-3H-imidazo[4,5-b]pyridin-3-yl)-2,3-dihydro-1H-inden-1-yl)-2-(dimethylamino)isonicotinamide] |
| – | – | 624 | – | 7.99 | 98 | 30.6 | – | Nc1ncccc1-c1nc2ccc(-n3ccc(N4CCOCC4)n3)nc2n1-c1ccc2c(c1)CC[C@@H]2NC1CCN(C(=O)C2CC2)CC1 [Compound 488] |
| 6.27 | 64 | 555 | 24.1 | – | – | – | – | Nc1ncccc1-c1nc2ccc(-n3cccn3)nc2n1-c1ccc2c(c1)CC[C@@H]2NC(=O)c1cccnc1 [Compound 34, N-[(1S)-5-[2-(2-aminopyridin-3-yl)-5-(pyrazol-1-yl)imidazo[4,5-b]pyridin-3-yl]-2,3-dihydro-1H-inden-1-yl]pyridine-3-carboxamide] |
| 2.97 | 55.8 | 523 | 10.8 | – | – | – | – | Cn1c(C(=O)N[C@H]2CCc3cc(-n4c(-c5cccnc5N)nc5ccc(-n6cccn6)nc54)ccc32)cc2ccccc2c1=O [Compound 8, N—{(S)-5-[2-(2-amino-3-pyridyl)-5-(1-pyrazolyl)-3H-1,3,4-triazainden-3-yl]-1-indanyl}-2-methyl-1-oxo-1,2-dihydro-3-isoquinolinecarboxamide] |
| 2.75 | 7.09 | 516 | 33.7 | – | – | – | – | COc1cc(C(=O)N[C@H]2CCc3cc(-n4c(-c5cccnc5N)nc5ccc(-n6cccn6)nc54)ccc32)cc(C)n1 [Compound 280] |
| 8.58 | 24.9 | 444 | 26.5 | – | – | – | – | Nc1ncccc1-c1nc2ccc(-n3cccn3)nc2n1-c1ccc2c(c1)CC[C@@H]2NC(=O)c1cnc(C(F)F)c(Cl)c1 [Compound 365] |
| – | – | 285 | – | 5.37 | 351 | 23.6 | – | Nc1ncccc1-c1nc2ccc(-n3nccn3)nc2n1-c1ccc2c(c1)CC[C@@H]2NC(=O)c1ccc(C2CC2)nc1 [Compound 491] |
| 2.75 | 2.91 | 264 | 10.6 | – | – | – | – | COc1cc(C(=O)N[C@H]2CCc3cc(-n4c(-c5cccnc5N)nc5ccc(-n6cccn6)nc54)ccc32)cc(OC)n1 [Compound 283] |
